SMILES strings stand for the structures. Converted amounts (≈) assume the structure as drawn. Where only a bound is given, the exact number is not on record here.

1 compound from patent US5776970A, “Tryptophan derivatives as protein tyrosine kinase blockers and their use in the treatment of neoplastic diseases” (Yeda Research and Development Co. Ltd., priority 1994, dated 1998) can be followed below.

Data set [1] has as its system vanadate-stimulated lipogenesis in rat adipocytes. As to the kind of experiment: vanadate-stimulated lipogenesis in rat adipocytes. Format: cell-based. To be noted: Adipocyte, intact rat adipocytes, read-out: IC50, insulin-like effects of vanadate ions (lipogenesis).
The next data set deals with rat adipocytes. The data set can be described thus: permeability into cell interiors (intact cell system, lipogenesis). The following applies: graded in words. Format: cell-based. Here is the method: Rat adipocytes were prepared essentially by the method of Rodbell, 1964. The fat pads of three rats were cut into small pieces with scissors and digested in 3 ml of Krebs-Ringer-Bicarbonate (KRB)-buffer containing 0.7% bovine serum albumin (BSA) (pH 7.4) with collagenase (1 mg/ml). The digestion was performed in a 25 ml flexible plastic bottle under an atmosphere of carbogen (95% O2, 5% CO2) for 40 min at 37° C. with vigorous shaking. Five ml of buffer was then added, and the cells were squeezed through a mesh screen. The cells were then allowed to stand for several minutes (in a 15 ml plastic test tube at room temperature, floating) and the buffer underneath was removed. This procedure (suspension, floating and removal of buffer underneath) was repeated three times. For [^14 C-U]glucose incorporation (lipogenesis), the fat cell suspensions (3×10^5 cells/ml) were divided into plastic vials (0.5 ml per vial) and incubated for 60 min at 37° C. under an atmosphere of 95% O2, 5% CO2, with 0.2 mM [U-^14 C]glucose, in either the presence or absence of insulin (100 ng/ml) and the indicated concentrations in FIG. 2 of CBZ-DNPS-TRP-TAU. The reaction was terminated by adding toluene-based scintillation fluid (1.0 ml per vial) and the extracted lipids were counted (Shechter and Karlish, 1980). Fat cell suspensions were pre-incubated for 20 min at 37° C. with increasing concentrations of the inhibitors. Results are expressed in FIG. 2 as the percent of maximal stimulation at the indicated concentrations of inhibitors. In all experiments insulin-stimulated lipogenesis was 4- to 5-fold higher than basal; basal ~2000 cpm per 3×10^5 cells/h; Vinsulin 8000-10,000 cpm per 3×10^5 cells/h.
(§1) Various derivatives according to the invention in which R^1 is benzyloxycarbonyl (CBZ) or t-butoxycarbonyl (t-Boc), R^2 is --SO3 H or --PO3 H, n is 1,2 or 3, and R^3 is H, 2-nitrophenylthio (NPS) or 2,4-dinitrophenylthio (DNPS) were prepared and examined in cell-free and intact cell systems. The cell-free assay is PolyGlu4 Tyr phosphorylation by partially purified insulin receptor as described in Example 3. The assay in intact cells (namely, lipogenesis) was carried out as described in Example 4.

The target in data set [2] is insulin receptor tyrosine kinase (InsRTK) (Rattus norvegicus, UniProt P15127). The data set can be described thus: PolyGlu4 Tyr phosphorylation by partially purified (wheat-germ-agglutinin purified) rat liver insulin receptor, cell-free. Type of data set: biochemical. Also noted: wheat-germ-agglutinin purified rat liver insulin receptor; from tissue; host or cells: rat liver (wheat-germ-agglutinin purified). Here is the method:
An assay of PolyGlu4 Tyr phosphorylation by partially purified insulin receptor was run for 30 min at 22° C. in 60 μl of 50 mM Hepes (pH 7.4)-0.1% Triton X-100 containing wheat-germ-agglutinin purified rat liver insulin receptor (1 μg protein), MgCl2 25 mM; MnCl2, 1 mM, ATP 17 μM, insulin 0.1 μM, PolyGlu4 Tyr, 0.17 mg/ml and the indicated concentrations in FIG. 1 of CBZ-DNPS-TRP-TAU. Phosphotyrosine content in PolyGlu4 Tyr was determined by a radioimmunoassay procedure (Shisheva et al., 1991). […] The inhibitory potency of other derivatives of formula I on InsRTK-catalyzed PolyGlu4 Tyr phosphorylation in cell-free experiments was determined. […] For comparison, the IC50 values for AC-TRP-TAU and L-tryptophan are 5 mM and >30 mM, respectively.
as §1

The test system of data set [3] is isoproterenol-mediated lipolysis. As to the kind of experiment: isoproterenol-mediated lipolysis in rat adipocytes (glycerol release). Type of data set: cell-based. Here is the method:
In general there are two classes of protein kinases (PKs) in mammalian tissues: (a) PKs which phosphorylate tyrosine moieties in proteins (to phosphotyrosine), and (b) PKs which phosphorylate serine and threonine moieties (to phosphoserine and phosphotreonine). […] An example for such a metabolic effect is lipolysis which depends on protein kinase A. Rat adipocytes (prepared by the method of Rodbell, 1964) were incubated with isoproterenol alone (1 μM) or isoproterenol with CBZ-DNPS-TRP-TAU (200 μM) for one hour at 37° C. The amount of glycerol released from the cells was then determined by spectroscopic procedure (Shechter, 1982).

The next data set deals with LB3 cells. The data set can be described thus: LB3 cell proliferation in response to various mitogens (IL-2, growth hormone, PMA). Type of data set: cell-based, murine. Here is the method:
(§2) LB cells were removed from the peritoneal cavity of BALB/c mice, washed and resuspended in RPMI-1640. Then a continuous line designated LB3 was established in "LB medium" (50% RPMI-1640 plus 50% DCCM-1 in 10% fetal calf serum (FCS)). The LB3 cells were incubated (37° C., 5% CO2) in microplate wells (Nunc, Roskilde, Denmark) with 0.2 ml RPMI-1640 alone and in the same medium containing insulin, fetal calf serum (FCS) or both, and different concentrations of the compound CBZ-DNPS-TRP-TAU as indicated in FIG. 3. Proliferation capacity was determined by thymidine incorporation (^3 H-TdR, 1 μCi/well, specific activity 5 Ci/mM), added to the cells 24 hours later. In a typical experiment, cpm of ^3 H-thymidine incorporated into 30,000 cells was 12-14 fold higher in the presence of insulin or other mitogens than in their absence.
Experimental conditions were as described in Example 6 except that lower concentrations of mitogens were applied here (those triggering 50% of maximal proliferation): insulin, interleukin-2 (IL-2), growth hormone and PMA. PMA is an activator of protein kinase C. Protein kinase C in this cell type triggers proliferation by a pathway which is only partially dependent on endogenous tyrosine phosphorylation.

The test system of data set [4] is insulin-stimulated lipogenesis in rat adipocytes. As to the kind of experiment: insulin-stimulated lipogenesis in rat adipocytes ([U-14C]glucose incorporation). Type of data set: cell-based. To be noted: Adipocyte; intact rat adipocytes; insulin 100 ng/ml; 20 min pre-incubation, 60 min at 37° C.; read-out: IC50, insulin-dependent lipogenesis. Here is the method:
The fat pads of three rats were cut into small pieces with scissors and digested in 3 ml of Krebs-Ringer-Bicarbonate (KRB)-buffer containing 0.7% bovine serum albumin (BSA) (pH 7.4) with collagenase (1 mg/ml). […] Five ml of buffer was then added, and the cells were squeezed through a mesh screen. The cells were then allowed to stand for several minutes (in a 15 ml plastic test tube at room temperature, floating) and the buffer underneath was removed. This procedure (suspension, floating and removal of buffer underneath) was repeated three times. […] Fat cell suspensions were pre-incubated for 20 min at 37° C. with increasing concentrations of the inhibitors. Results are expressed in FIG. 2 as the percent of maximal stimulation at the indicated concentrations of inhibitors.

In data set [5] the test system is murine T-cell lymphoma (LB3). The data set can be described thus: insulin-dependent proliferation of murine T-cell lymphoma (LB3), thymidine incorporation. Type of data set: cell-based. Here is the method:
as §2
In general terms: Dividing cells build labelled thymidine or BrdU into new DNA.

Sequence of insulin receptor tyrosine kinase (InsRTK) (P15127 764-1383 limits assumed): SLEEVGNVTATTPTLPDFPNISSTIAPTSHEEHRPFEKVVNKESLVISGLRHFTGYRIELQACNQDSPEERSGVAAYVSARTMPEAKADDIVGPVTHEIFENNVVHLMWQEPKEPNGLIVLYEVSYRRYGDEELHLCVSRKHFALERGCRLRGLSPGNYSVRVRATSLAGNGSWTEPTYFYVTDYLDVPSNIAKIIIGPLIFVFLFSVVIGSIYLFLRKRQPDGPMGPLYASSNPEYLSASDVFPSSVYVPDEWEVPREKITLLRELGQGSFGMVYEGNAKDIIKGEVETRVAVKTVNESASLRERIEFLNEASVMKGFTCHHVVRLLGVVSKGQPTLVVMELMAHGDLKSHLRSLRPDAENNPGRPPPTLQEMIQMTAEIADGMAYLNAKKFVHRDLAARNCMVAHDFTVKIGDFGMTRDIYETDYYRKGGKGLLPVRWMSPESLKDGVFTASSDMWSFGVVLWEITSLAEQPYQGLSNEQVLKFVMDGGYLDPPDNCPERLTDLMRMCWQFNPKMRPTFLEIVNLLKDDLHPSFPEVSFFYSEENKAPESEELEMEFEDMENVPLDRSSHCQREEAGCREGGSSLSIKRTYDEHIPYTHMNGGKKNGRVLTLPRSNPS
Sequence of insulin receptor tyrosine kinase (InsRTK) (P15127 27-759 partner limits assumed): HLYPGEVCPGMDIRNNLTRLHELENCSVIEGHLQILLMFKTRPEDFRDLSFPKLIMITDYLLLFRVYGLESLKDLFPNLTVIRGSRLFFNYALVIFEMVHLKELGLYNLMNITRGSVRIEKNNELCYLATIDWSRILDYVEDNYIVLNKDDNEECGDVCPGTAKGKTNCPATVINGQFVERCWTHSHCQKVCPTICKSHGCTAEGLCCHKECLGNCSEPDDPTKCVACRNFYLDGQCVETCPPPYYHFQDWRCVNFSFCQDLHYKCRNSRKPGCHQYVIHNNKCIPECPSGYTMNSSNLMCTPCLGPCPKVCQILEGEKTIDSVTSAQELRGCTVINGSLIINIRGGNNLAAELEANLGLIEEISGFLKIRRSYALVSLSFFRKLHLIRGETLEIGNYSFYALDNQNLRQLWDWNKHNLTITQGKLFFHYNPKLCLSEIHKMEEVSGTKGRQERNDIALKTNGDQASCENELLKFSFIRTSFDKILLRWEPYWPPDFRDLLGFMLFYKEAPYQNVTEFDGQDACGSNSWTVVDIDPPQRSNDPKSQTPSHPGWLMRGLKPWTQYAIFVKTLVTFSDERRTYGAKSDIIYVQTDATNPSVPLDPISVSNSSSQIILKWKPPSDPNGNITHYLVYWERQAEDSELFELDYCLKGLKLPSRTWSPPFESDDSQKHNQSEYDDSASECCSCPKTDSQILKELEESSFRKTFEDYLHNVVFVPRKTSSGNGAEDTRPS

For the compound `O=C(N[C@@H](Cc1c(Sc2ccc([N+](=O)[O-])cc2[N+](=O)[O-])[nH]c2ccccc12)C(=O)NCCS(=O)(=O)O)OCc1ccccc1` [CBZ-DNPS-TRP-TAU], the IC50 in data set [1] was found to be 45 µM; in data set [2], 130 µM; in data set [4], 170 µM; in data set [5] (Mus musculus, T-cell, LB3, insulin-dependent, thymidine added 24 hours later), 0.95 µM. Besides, the “Permeability into cell interiors” value with rat adipocytes was “excellent”. Also, the “effect in inhibiting isoproterenol-mediated lipolysis” value in data set [3] (200 μM, isoproterenol 1 μM, one hour at 37° C.) was “negligible effect”. Besides, the “Amount of glycerol released” value in data set [3] (CBZ-DNPS-TRP-TAU 200 μM plus isoproterenol 1 μM) worked out at 154 nmol/3 × 10^5 cells/3 h. For the same compound, the activity at 200 µM in data set [3] (Rattus norvegicus, Adipocyte, CBZ-DNPS-TRP-TAU 200 μM plus isoproterenol 1 μM, read-out: Percent lipolysis) is 93%. For the same compound, in the data set on LB3 cells (IL-2 at 50% of maximal proliferation), the “inhibition of IL-2-dependent proliferation of the T-cell lymphoma” value was “blocks”. Moreover, the “inhibition of protein kinase C-dependent proliferation” value with LB3 cells (PMA at 50% of maximal proliferation) is reported as “at significantly higher concentrations”. Further, the “inhibition of growth hormone-dependent proliferation of the T-cell lymphoma” value with LB3 cells (growth hormone at 50% of maximal proliferation) is listed as “blocks”. Besides, the “concentration range lower than that required to inhibit normal metabolic biological effects of insulin” value in data set [5] (LB3 proliferation vs lipogenesis in rat adipocytes (FIG. 2)) is roughly 200 times. The solubility was 20 mM (≈ 12.9 mg/mL) in “solubility” (dmf, organic solvent or mixture); 20 mM (≈ 12.9 mg/mL) in “solubility” (dmso, organic solvent or mixture); no more than 2 mM in the data set “solubility” (water).

As usually defined, the IC50 is the concentration that inhibits the measured activity by half. Broadly, the solubility is the concentration that dissolves in the medium under given conditions.
